Measured values as given in article PMC5026937 (Antiviral research, 2016).

System: A/Switzerland/9715293/2013 (H3N2)
Assay type: cell-based, Influenza A virus

CCC(CC)O[C@@H]1C=C(C(=O)O)C[C@H](N)[C@H]1NC(C)=O [Oseltamivir carboxylate, oseltamivir carboxylate] was tested, and the “EC50 increase on serial passage” value was “more than ten-fold”.
